# What was measured:
# Assay type in all cases: in vivo, C57BL/6J mice
# aged mice = assay: Delayed-type hypersensitivity (DTH) response, ear swelling after KLH elicitation, in aged mice; conditions: aged mice (19-months old), 0.8 weight-% N-acetylneuraminic acid in AlN-93 diet, vs non-supplemented AlN-93, n=10
# Protocol: Specific pathogen-free male C57BL/6J mice (4-weeks old) were purchased from Janvier (France). Mice were housed under conventional circumstances (12 hours light/dark cycle, temperature 22° C., humidity 56%) and received water and semi-synthetic Kliba 3436 diet ad libitum. Until the age of 5 months, mice were maintained at 5 per cage and then they were individually caged. All conditions and handling of the animals were approved by the Nestle and state ethical committees with the agreement of the Swiss Federal Veterinary Advisor. 19-months old mice were randomized into 2 groups of 10 animals and were fed with a semi-synthetic AlN-93 diet either non-supplemented (group control AlN-93, n=10) or supplemented with SiAc (0.8 weight-% N-acetylneuraminic acid in the diet) (group SiAc, n=10). During the 42 days of trial, all mice were allowed to drink and eat ad libitum.
# The DTH response was used as an in vivo measure of cellular immunity. […] At 24 hours post-elicitation, and during the following 5 days, both the non-elicited (left ear) and the elicited ears (right ear) were measured. DTH responses (KLH-PBS) were expressed as the magnitude of ear swelling, i.e. the change in ear thickness using the following formula: Δ in ear thickness=[elicited ear (right, KLH) ear sickness−non-elicited (left, PBS) ear sickness], where Δ in ear thickness=[post-elicitation−pre-elicitation ear thickness].
# TGF-β2 = assay: Liver mRNA expression of TGF-β2 in aged mice (TaqMan low density array); conditions: 0.8 weight-% N-acetylneuraminic acid in diet for 42 days, vs non-supplemented AlN-93, n=8
# Protocol: (§1) Specific pathogen-free male C57BL/6J mice (4-weeks old) were purchased from Janvier (France). Mice were housed under conventional circumstances (12 hours light/dark cycle, temperature 22° C., humidity 56%) and received water and semi-synthetic Kliba 3436 diet ad libitum. Until the age of 5 months, mice were maintained at 5 per cage and then they were individually caged. All conditions and handling of the animals were approved by the Nestle and state ethical committees with the agreement of the Swiss Federal Veterinary Advisor. […]
# (§2) Mice were killed on day 42 of trial. The expression of genes involved in inflammatory processes was determined in the liver of aged mice that were supplemented or not with SiAc for 42 days. […]
# (§3) Liver samples were transferred into 1 ml of RNA lysis buffer (Macherey-Nagel, Düren, Germany) and homogenized using Ribolyzer (Hybaid, Waltham, Mass., USA) with the following setting: power at 6 for 20 seconds. […] RNA quantification was achieved using the Ribogreen RNA Quantitation Kit (Molecular Probes; Eugene, Oreg. USA), and RNA quality was assayed using Agilent RNA 6000 Nano LabChip Kit (Agilent Technologies, Palo Alto, USA). […]
# HO-1 = assay: Liver mRNA expression of HO-1 in aged mice (TaqMan low density array); conditions: 0.8 weight-% N-acetylneuraminic acid in diet for 42 days, vs non-supplemented AlN-93, n=8
# Protocol: as §1, §2, §3
# SOD2 = assay: Liver mRNA expression of SOD2 in aged mice (TaqMan low density array); conditions: 0.8 weight-% N-acetylneuraminic acid in diet for 42 days, vs non-supplemented AlN-93, n=8
# Protocol: as §1, §2, §3
smiles,measurement,setting,value
"CC(=O)N[C@H]1[C@H]([C@H](O)[C@H](O)CO)OC(O)(C(=O)O)C[C@@H]1O (stereo partly shown) [SiAc, N-acetylneuraminic acid]","cell-mediated immune response (DTH response, FIG. 1)",aged mice,improved
same,expression of gene encoding anti-inflammatory molecule TGF-β2 (FIG. 2),TGF-β2,increased expression
same,"expression of gene encoding HO-1, defence against oxidative damage (FIG. 2)",HO-1,increased expression
same,"expression of gene encoding SOD2, defence against oxidative damage (FIG. 2)",SOD2,increased expression

# From patent US9084805B2, “Sialic acid to support the immune system in the elderly” (Nestec S.A., priority 2008, dated 2015)
